According to patent US20240254129A1, “HETEROCYCLIC COMPOUNDS AND USES THEREOF” (Kumquat Biosciences Inc., priority 2021, published 2024):
Where two headings read alike, the source gives them in different places.

Key:
[1] = target: T1, K-Ras G12D mutant (Homo sapiens, UniProt P01116, G12D); experiment: Nucleotide exchange assay (SOS1, BODIPY FL GDP), mutant K-Ras; assay type: biochemical; details: compound marked *: general methodology of example 7 (nucleotide exchange); read-out: IC50 against mutant Kras
T1 construct: GST (N); made in house; host or cells: E. coli BL21 (DE3)
T1 sequence (P01116 1-188 isoform P01116-2 G12D): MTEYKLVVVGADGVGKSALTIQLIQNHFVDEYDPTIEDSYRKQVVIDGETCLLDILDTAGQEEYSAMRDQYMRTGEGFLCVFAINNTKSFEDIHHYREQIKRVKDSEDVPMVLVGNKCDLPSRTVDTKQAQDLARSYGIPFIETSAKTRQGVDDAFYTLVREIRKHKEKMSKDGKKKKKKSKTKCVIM
Description: (§1) This assay can be also used to assess a selective inhibition of a mutant Ras protein relative to a wildtype, or relative to a different mutant Ras protein. For example, 250 nM or 500 nM GDP-loaded K-Ras proteins (e.g., wildtype or a mutant thereof including those mentioned in Example 6), each was incubated with different concentrations of compounds (for example ˜60 μM, ˜20 μM, ˜6.7 μM, ˜2.2 μM, ˜0.7 µM, ˜0.2 μM subject compound). A control reaction without subject compound was also included. SOS1 (catalytic domain) protein was added to the K-Ras protein solution. The nucleotide exchange reaction was initiated by adding fluorescent labelled GDP (Guanosine 5′-Diphosphate, BODIPY™ FL 2′-(or-3′)—O—(N-(2-Aminoethyl) Urethane) to a final concentration of 0.36 μM. Fluorescence was measured every 30 s for 70 minutes at 490 nm/515 nm (excitation/emission) in a M1000Pro plate reader (Tecan). Data is exported and analyzed to calculate an IC50 using GraphPad Prism (GraphPad Software). Sample(s) was tested with or without a subject compound disclosed herein including compound(s) exemplified in Table 1 to assess compound's ability to inhibit K-Ras signaling or its IC50 against a given Ras protein (e.g., a given mutant K-Ras) of interest.

[2] = target: T2, wildtype K-Ras (Homo sapiens, UniProt P01116); experiment: Nucleotide exchange assay (SOS1, BODIPY FL GDP), wildtype K-Ras; assay type: biochemical; details: compound marked *: general methodology of example 7 (nucleotide exchange); read-out: IC50 against wildtype Kras
T2 construct: GST (N); made in house; host or cells: E. coli BL21 (DE3)
T2 sequence (P01116 1-188 isoform P01116-2): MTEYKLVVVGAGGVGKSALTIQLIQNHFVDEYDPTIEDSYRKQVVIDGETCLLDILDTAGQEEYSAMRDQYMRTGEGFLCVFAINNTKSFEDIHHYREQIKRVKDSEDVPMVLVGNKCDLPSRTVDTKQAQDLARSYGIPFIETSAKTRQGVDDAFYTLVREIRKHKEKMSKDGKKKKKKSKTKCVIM
Description: as §1

[3] = target: T3, wildtype Kras / hSOS1 (Homo sapiens, UniProt P01116); experiment: HTRF assay, wildtype Kras / SOS1 interaction; assay type: binding; details: read-out: IC50 against wildtype Kras
T3 construct: made in house; host or cells: E. coli BL21 (DE3)
T3 sequence (P01116 1-188 isoform P01116-2): as above
Summary of the method: (§2)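 Compounds tested in duplicate from 10 μM down to 0.01 μM, incubated about 10 min or longer with GST-K-Ras/anti-GST-Eu and His-hSOS1/anti-6His-XL665 in ~5 mM HEPES pH 7.4 buffer with ~150 mM NaCl, DTT, BSA and Igepal. IC50 derived from 665/620 nm emission ratio.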

[4] = target: GST-tagged K-Ras mutant / His-tagged hSOS1 (Homo sapiens, UniProt P01116); experiment: HTRF assay, K-Ras mutant / SOS1 interaction; assay type: binding; details: read-out: IC50 against mutant Kras
Sequence of GST-tagged K-Ras mutant / His-tagged hSOS1 (P01116 whole entry G12D, form open): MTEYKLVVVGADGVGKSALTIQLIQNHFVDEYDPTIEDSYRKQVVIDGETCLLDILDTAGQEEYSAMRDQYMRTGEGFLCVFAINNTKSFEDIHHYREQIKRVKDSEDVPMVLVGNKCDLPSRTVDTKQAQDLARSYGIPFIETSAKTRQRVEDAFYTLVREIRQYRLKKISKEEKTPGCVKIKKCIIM
Summary of the method: as §2

[5] = compound nos. 102-196, general methodology of example 5

SMILES | IC50 ([3]; compound nos. 401-703) [µM] | IC50 ([4]; compound nos. 401-703) [µM] | also measured
CN1CCC[C@H]1COc1nc(N2CCCNCC2)c2cc(Cl)c(-c3cccc4sc(N)nc34)c(F)c2n1 [Compound 101, 4-(6-chloro-4-(1,4-diazepan-1-yl)-8-fluoro-2-(((S)-1-methylpyrrolidin-2-yl)methoxy)quinazolin-7-yl)benzo[d]thiazol-2-amine] | – | – | IC50 [1]: < 0.5 µM; IC50 [2]: > 0.5 µM
CN1CCC[C@H]1COc1nc(N2CCCC(Cl)CC2)c2cc(Cl)c(-c3cccc4sc(N)nc34)c(F)c2n1 (stereo partly drawn) [Compound 593, 4-(6-chloro-4-(4-chloro-azepan-1-yl)-8-fluoro-2-(((S)-1-methylpyrrolidin-2-yl)methoxy)quinazolin-7-yl)benzo[d]thiazol-2-amine] | > 0.5 | < 0.5 | –
Nc1nc2c(-c3ccc4c(N5CC6CCC(C5)N6)nc(OC[C@@]56CCCN5C[C@H](F)C6)nc4c3F)cccc2o1 [Compound 634, 4-(4-(3,8-diazabicyclo-[3.2.1]octan-3-yl)-8-fluoro-2-(((2R,7aS)-2-fluorotetra-hydro-1H-pyrrolizin-7a(5H)-yl)methoxy)quinazolin-7-yl)benzo[d]oxazol-2-amine] | > 0.5 | > 0.5 | –
N#CCCc1cc2c(N3CC4CCC(C3)N4)nc(OC[C@@]34CCCN3C[C@H](F)C4)nc2c(F)c1-c1cccc2ccc(F)c(Cl)c12 [Compound 451, 3-(4-(3,8-diazabicyclo-[3.2.1]octan-3-yl)-7-(8-chloro-7-fluoronaphthalen-1-yl)-8-fluoro-2-(((2R,7aS)-2-fluorotetrahydro-1H-pyrrolizin-7a(5H)-yl)meth-oxy)quinazolin-6-yl)pro-panenitrile] | < 0.5 | > 0.5 | –
N#Cc1c(N)sc2c(F)ccc(-c3c(Cl)cc4c(N5CC6CCC(C5)N6)nc(OC[C@@]56CCCN5C[C@H](F)C6)nc4c3F)c12 [Compound 638, 4-(4-(3,8-diazabicyclo-[3.2.1]octan-3-yl)-6-chloro-8-fluoro-2-(((2R,7aS)-2-fluorotetrahydro-1H-pyrrol-izin-7a(5H)-yl)methoxy)-quinazolin-7-yl)-2-amino-7-fluorobenzo[b]thiophene-3-carbonitrile] | > 0.5 | < 0.5 | –
Nc1ccc2cccc(-c3c(Cl)cc4c(N5CC6CCC(C5)N6)nc(OC[C@@]56CCCN5C[C@H](F)C6)nc4c3F)c2n1 [Compound 606, 8-(4-(3,8-diazabicyclo-[3.2.1]octan-3-yl)-6-chloro-8-fluoro-2-(((2R,7aS)-2-fluorotetrahydro-1H-pyrrol-izin-7a(5H)-yl)methoxy)-quinazolin-7-yl)quinolin-2-amine] | > 0.5 | > 0.5 | –
Nc1nc2c(-c3c(Cl)cc4c(N5CCC[C@@H](N)CC5)nc(OC[C@@]56CCCN5C[C@H](F)C6)nc4c3F)ccc(F)c2s1 [Compound 434, 4-(4-((R)-4-aminoazepan-1-yl)-6-chloro-8-fluoro-2-(((2R,7aS)-2-fluorotetra-hydro-1H-pyrrolizin-7a(5H)-yl)methoxy)quinazolin-7-yl)-7-fluorobenzo[d]thiazol-2-amine] | < 0.5 | < 0.5 | –
CN1CCC[C@H]1COc1nc(N2CCN(S(C)(=O)=O)CC(F)(F)C2)c2cc(Cl)c(-c3cccc4sc(N)nc34)c(F)c2n1 [Compound 140, 4-(6-chloro-4-(6,6-difluoro-4-(methylsulfonyl)-1,4-diazepan-1-yl)-8-fluoro-2-(((S)-1-methylpyrrolidin-2-yl)methoxy)quinazolin-7-yl)-benzo[d]thiazol-2-amine] | – | – | IC50 [3, 5]: < 0.5 µM; IC50 [4, 5]: > 0.5 µM
Nc1nc2ccccc2c(-c2ccc3c(N4CC5CCC(C4)N5)nc(OCC45CCCN4CCC5)nc3c2F)c1Cl [Compound 493, 4-(4-(3,8-diazabicyclo-[3.2.1]octan-3-yl)-8-fluoro-2-((tetrahydro-1H-pyrrol-izin-7a(5H)-yl)methoxy)-quinazolin-7-yl)-3-chloro-quinolin-2-amine] | < 0.5 | > 0.5 | –
CC1CCCCN(c2nc(OC[C@@H]3CCCN3C)nc3c(F)c(-c4cccc5sc(N)nc45)c(Cl)cc23)C1 (stereo partly drawn) [Compound 550, 4-(6-chloro-8-fluoro-4-(3-methylazepan-1-yl)-2-(((S)-1-methylpyrrolidin-2-yl)-methoxy)quinazolin-7-yl)-benzo[d]thiazol-2-amine] | > 0.5 | < 0.5 | –
CN1C[C@@H](F)C[C@H]1COc1nc(N2CCNCC(F)(F)C2)c2cc(Cl)c(-c3cccc4sc(N)nc34)c(F)c2n1 [Compound 130, 4-(6-chloro-4-(6,6-difluoro-1,4-diazepan-1-yl)-8-fluoro-2-(((2S,4S)-4-fluoro-1-methylpyrrolidin-2-yl)meth-oxy)quinazolin-7-yl)benzo-[d]thiazol-2-amine] | – | – | IC50 [3, 5]: < 0.5 µM; IC50 [4, 5]: > 0.5 µM
